Results on two compounds are retold here after publication PMC3932137, “Simple, sensitive and rapid determination of linifanib (ABT-869), a novel tyrosine kinase inhibitor in rat plasma by UHPLC-MS/MS” (Chemistry Central Journal, 2014).

A short description of data set [1]: stability of stock solutions and working solutions. It is filed as physicochemical. The following applies: for time stock solutions and working standard stable at refrigerator temperature: refrigerator temperature (below 10°C). On the procedure:
(§1) The stability of linifanib in rat plasma during the sample storage and processing conditions was assessed by analyzing six replicates of LQC and HQC. Short-term stability was assessed after keeping the plasma samples at ambient temperature for ∼ 6 h, the freeze–thaw stability was determined after three cycles of freeze-thaw. Post-preparative stability was determined by storing the reconstituted QC samples for ∼ 48 h under autosampler conditions (maintained at 10°C) before being analyzed. Long-term stability was assessed after storage of the test samples at around −80°C for 30 days. The working solutions and stock solutions of linifanib and the IS were also evaluated for stability at room temperature for 12 h and at refrigerator temperature (below 10°C) for 15 days. The samples were considered stable in plasma at each concentration if the deviation from the mean calculated concentration of quality control samples were within ±15%.

Details of data set [2]: method as in PMID 22382879, PMID 19720910. The following applies: phase I study, cited from earlier work.
A short description of data set [3]: stability of linifanib in rat plasma during sample storage and processing. It is filed as in vitro ADME. Conditions: for Accuracy (%) / Mean ± SD concentration found: n = 6. On the procedure: as §1
Data set [4] is described as follows: pilot pharmacokinetic study of linifanib in rats (oral). Type of data set: in vivo. The following applies: male, Wistar albino, plasma, rat, 5 mg/kg oral, single dose. On the procedure: After an overnight fasting, all rats received linifanib (5 mg/kg, oral, dissolved in HPMC). Blood samples (approximately 0.5 mL) were collected from the retro-orbital plexus into heparinized microfuge tubes at different time interval after linifanib administration and plasma samples were harvested by centrifuging the blood at 4500 rpm for 8 min and stored frozen at −80 ± 10°C until analysis. The pharmacokinetic parameters: Cmax, Tmax, AUC, t½ and Kel were calculated using WinNonlin software.

Where [5] appears, read: rat plasma, 30 days at −80°C, nominal 1.28 ng/mL.
The mark [6] stands for this setting: rat plasma, 30 days at −80°C, nominal 425 ng/mL.
The mark [7] stands for this setting: rat plasma, bench top (6 hrs), nominal 1.28 ng/mL.
Setting [8] is: rat plasma, bench top (6 hrs), nominal 425 ng/mL.
Where [9] appears, read: rat plasma, freeze thaw (3 cycle), nominal 1.28 ng/mL.
[10] abbreviates: rat plasma, freeze thaw (3 cycle), nominal 425 ng/mL.
[11] abbreviates: reconstituted QC samples in injector (48 hrs, 10°C), nominal 1.28 ng/mL.
Setting [12] is: reconstituted QC samples in injector (48 hrs, 10°C), nominal 425 ng/mL.

Structures are written as SMILES.

`CCN(CC)CCNC(=O)c1c(C)[nH]c(/C=C2\C(=O)Nc3ccc(F)cc32)c1C` [IS, sunitinib]: in data set [1], the “time stock solutions and working standard stable at refrigerator temperature” value worked out at 15 days; the “time stock solutions and working standard stable at room temperature” value was determined as 12 h.
As to `Cc1ccc(F)c(NC(=O)Nc2ccc(-c3cccc4[nH]nc(N)c34)cc2)c1` [linifanib, N-(4-(3-amino-1H-indazol-4-yl)phenyl)-N'-(2-fluoro-5-methylphenyl)urea], the “time stock solutions and working standard stable at refrigerator temperature” value in data set [1] was 15 days. Further, the “time stock solutions and working standard stable at room temperature” value in data set [1] is on record as 12 h. In data set [2] (across all dose levels), the “time to peak plasma concentration” value is “approx. 2 h”. In data set [2], the “dose recovered as unchanged in urine” value is reported as 15%. In addition, the oral clearance in data set [2] is 2.7 L/h. Also, in data set [2], the “pharmacokinetics (dose and time dependence)” value is “dose proportional and time invariant”. For the same compound, the “time stable in autosampler” value in data set [3] (autosampler maintained at 10°C) stood at 48 h. In addition, the “Accuracy (%)” value in data set [3] (setting [5]) came out at 98.3%; in data set [3] (setting [6]) it was 90.5%; in data set [3] (setting [7]) it was 105.0%; in data set [3] (setting [8]), 92.7%; in data set [3] (setting [9]), 101.1%; in data set [3] (setting [10]) it was 90.7%. In addition, the “Accuracy (%)” value in data set [3] (setting [11]) is recorded as 110.6%; in data set [3] (setting [12]), 107.2%. For the same compound, the “Mean ± SD concentration found” value is given as 1.26 ± 0.10 ng/mL in data set [3] (setting [5]); 384 ± 20.2 ng/mL in data set [3] (setting [6]); 1.35 ± 0.06 ng/mL in data set [3] (setting [7]); 393 ± 34.8 ng/mL in data set [3] (setting [8]); 1.30 ± 0.10 ng/mL in data set [3] (setting [9]); 385 ± 14.3 ng/mL in data set [3] (setting [10]). Moreover, the “Mean ± SD concentration found” value was found to be 1.42 ± 0.09 ng/mL in data set [3] (setting [11]) and 455 ± 19.8 ng/mL in data set [3] (setting [12]). Also, the “time stable in rat plasma at around −80°C” value in data set [3] (spiked into rat plasma, around −80°C) was “up to 30 days”. In data set [3] (spiked into rat plasma, room temperature), the “time stable in rat plasma at room temperature” value is recorded as “at least 6.0 h”. In addition, in data set [3] (spiked into rat plasma, three freeze-thaw cycle), the “freeze-thaw stability in rat plasma” value is given as “stable”. In data set [4], this compound had a k el of 2.78e-05 s⁻¹. In addition, the half-life in data set [4] (read-out: average t½ (converted)) was 6.67 h. For the same compound, the AUC(0-t) in data set [4] (read-out: mean AUC0-8h) is 0.232 µg·h/mL. In addition, the Cmax in data set [4] (read-out: mean peak plasma concentration (Cmax)) turned out to be 0.0551 µg/mL. The Tmax in data set [4] (read-out: time to peak plasma concentration (Tmax)) stood at 2.5 h.
